Experimental data as given in patent publication US4533747A, “Leukotriene antagonists intermediates” (SmithKline Beckman Corporation, priority 1983, dated 1985).

Biological target: T1, leukotriene (LTD4) induced contraction of guinea pig tracheal tissues (Cavia porcellus, UniProt Q2NNR5)
T1 construct: Guinea pig (adult male albino Hartley strain) tracheal spiral strips; from tissue; host or cells: guinea pig (adult male albino Hartley strain) tracheal spiral strips
T1 sequence (Q2NNR5 1-340): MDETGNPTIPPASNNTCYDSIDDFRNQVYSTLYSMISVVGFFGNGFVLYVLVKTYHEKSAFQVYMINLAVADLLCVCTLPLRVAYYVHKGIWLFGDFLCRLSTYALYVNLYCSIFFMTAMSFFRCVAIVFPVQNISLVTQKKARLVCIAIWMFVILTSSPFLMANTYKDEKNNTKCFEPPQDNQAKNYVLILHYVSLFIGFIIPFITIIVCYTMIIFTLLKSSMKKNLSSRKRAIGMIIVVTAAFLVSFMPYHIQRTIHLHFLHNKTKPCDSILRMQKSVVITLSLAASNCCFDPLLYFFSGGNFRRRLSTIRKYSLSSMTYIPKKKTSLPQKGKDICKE
Test: Inhibition of LTD4-induced contraction of guinea pig tracheal tissues in vitro
Format: cell-based, Guinea pig (adult male albino Hartley strain)
Details: LTD4 cumulative concentration-response; guinea pig tracheal spiral strips; 30 min pretreatment with test compound; meclofenamic acid 1 μM; EC30 relative to carbachol 10 μM; read-out: pA2 (converted)
Method: The leukotriene antagonist activity of the compounds of formula (II) is measured by the ability of the compound to inhibit leukotriene induced contraction of guinea pig tracheal tissues in vitro. The following methodology was employed:
In vitro: Guinea pig (adult male albino Hartley strain) tracheal spiral strips of approximate dimensions 2 to 3 mm cross-sectional width and 3.5 cm length were bathed in modified Krebs buffer in jacketed 10 ml tissue bath and continously aerated with 95% O2 /5% CO2. The tissues were connected via silk suture to force displacement transducers for recording isometric tension. The tissues were equilibrated for 1 hr., pretreated for 15 minutes with meclofenamic acid (1 μM) to remove intrinsic prostaglandin responses, and then pretreated for an additional 30 minutes with either the test compound or vehicle control. A cumulative concentration-response curve for LTD4 on triplicate tissues was generated by successive increases in the bath concentration of the LTD4. In order to minimize intertissue variability, the contractions elicited by LTD4 were standardized as a percentage of the maximum response obtained to a reference agonist, carbachol (10 μM).
Calculations: The averages of the triplicate LTD4 concentration-response curves both in the presence and absence of the test compound were plotted on log graph paper. The concentration of LTD4 needed to elicit 30% of the contraction elicited by carbachol was measured and defined as the EC30. The pA2 value for the test compound as determined by the following equations: [formula]

Structure (SMILES): CCCCCCCCCCCC/C=C\C(SCCC(=O)O)C(=O)O (stereo not drawn) [2-[(2-Carboxyethyl)thio]-3(Z)-hexadecenoic acid]
- Kb: 1000 nM

Structure (SMILES): CCCCCCCCCCCC/C=C\C(CO)SCCC(=O)O (stereo not drawn) [2-[(2-Carboxyethyl)thio]-3(Z)-hexadecen-1-ol]
- Kb: 5010 nM

Structure (SMILES): CCCCCCCCCCCC/C=C\C(SCCC(=O)O)C(O)CC(=O)O (stereo not drawn) [3-Hydroxy-4-[(2-carboxyethyl)thio]-5(Z)-octadecenoic acid]
- Kb: 794 nM
